Laboratory results as given in patent US20230087118A1, “IMIDAZO[1,2-a][sequence] DERIVATIVES AND THEIR USE IN THE TREATMENT OF DISEASE” (priority 2019, published 2023).
pIC50: −log10 of the molar value. Counter-ions that a name gives are not always drawn. Like-named read-outs stand apart in the source and are kept apart here.

Biological target: T1, IRAK4 (Homo sapiens, UniProt Q9NWZ3)
T1 sequence (Q9NWZ3 1-460): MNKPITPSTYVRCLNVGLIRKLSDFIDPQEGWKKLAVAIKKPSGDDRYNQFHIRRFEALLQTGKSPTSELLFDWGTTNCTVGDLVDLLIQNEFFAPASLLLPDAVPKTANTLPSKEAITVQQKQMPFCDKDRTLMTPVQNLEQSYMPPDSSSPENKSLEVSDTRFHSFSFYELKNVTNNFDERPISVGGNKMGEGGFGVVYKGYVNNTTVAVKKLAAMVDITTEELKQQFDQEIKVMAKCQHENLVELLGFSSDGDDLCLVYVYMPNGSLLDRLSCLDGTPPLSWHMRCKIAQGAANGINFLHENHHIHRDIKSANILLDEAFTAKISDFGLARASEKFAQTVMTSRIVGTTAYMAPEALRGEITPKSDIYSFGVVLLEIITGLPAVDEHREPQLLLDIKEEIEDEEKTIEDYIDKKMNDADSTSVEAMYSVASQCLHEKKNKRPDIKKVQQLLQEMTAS
Assay: biochemical
Settings: for IC50: IRAK4 Biochemical Assay (1 mM ATP, 2 h) IC50 (μM), 1 mM ATP, 2 h, 100 pM IRAK4

SMILES	pIC50	IC50 [µM]
COc1cc2nc(C34CC(C)(CO3)C4)cn2cc1C(=O)Nc1ccccn1 [Example 4]	6.63	–
CC12CC(c3cn4cc(C(=O)Nc5ccn(CC6CC6)n5)c(OC5CCC5)cc4n3)(CO1)C2 [Example 525, 7-Cyclobutoxy-N-(1-(cyclopropylmethyl)-1H-pyrazol-3-yl)-2-(1-methyl-2-oxabicyclo[2.1.1]hexan-4-yl)imidazo[1,2-a]pyridine-6-carboxamide]	7.73	–
CC(C)Oc1cc2nc(C34COC(C3)C4)cn2cc1C(=O)Nc1ccn(C)n1 [Example 546, 2-(2-Oxabicyclo[2.1.1]hexan-4-yl)-7-isopropoxy-N-(1-methyl-1H-pyrazol-3-yl)imidazo[1,2-a]pyridine-6-carboxamide]	8.07	–
CC(C)Oc1nc(C(=O)Nc2cccc(C(F)F)n2)cn2cc(C34COC(CF)(C3)C4)nc12 [Example 338, N-(6-(difluoromethyl)pyridin-2-yl)-2-(1-(fluoromethyl)-2-oxabicyclo[2.1.1]hexan-4-yl)-8-isopropoxyimidazo[1,2-a]pyrazine-6-carboxamide]	7.98	–
COc1nc(C(=O)Nc2cccc(C(F)(F)F)n2)cn2cc(C[C@@H]3CCOC3)nc12 (single isomer, unassigned) [Example 70]	7.77	–
CC(C)COc1cc2nc(C3CC3)cn2cc1C(=O)Nc1cccc(C(F)F)n1 [Example 466, 2-Cyclopropyl-N-(6-(difluoromethyl)pyridin-2-yl)-7-isobutoxyimidazo[1,2-a]pyridine-6-carboxamide]	8.24	–
COc1cccc(NC(=O)c2cn3cc(C4CC5CCC(C4)O5)nc3cc2OC(C)C)n1 (stereo not shown) [Example 94, 2-(8-oxabicyclo[3.2.1]octan-3-yl)-7-isopropoxy-N-(6-methoxypyridin-2-yl)imidazo[1,2-a]pyridine-6-carboxamide]	7.75	–
CC(C)Oc1ncccc1NC(=O)c1cn2cc(C34CCC(C)(C3)OC4)nc2cc1OC1CCC1 (stereo not shown) [Example 539, 7-Cyclobutoxy-N-(2-isopropoxypyridin-3-yl)-2-(1-methyl-2-oxabicyclo[2.2.1]heptan-4-yl)imidazo[1,2-a]pyridine-6-carboxamide]	7.64	–
CC(C)Oc1cc2nc(C34COC(C)(C3)C4)cn2cc1C(=O)Nc1cccnc1OC(F)F [Example 222]	8.09	–
COc1cc2nc(C3CCOCC3)cn2cc1C(=O)Nc1cccc(C)c1Cl [Example 115]	8.21	–
CCOc1nc(C(=O)Nc2cccnc2OC)cn2cc([C@@H]3CCOC3)nc12 (single isomer, unassigned) [Example 599]	8.25	–
CCOc1cc(C(=O)Nc2cccc(OC)n2)cn2cc(C3CCCOC3)nc12 (stereo not shown) [Example 53, 8-Ethoxy-N-(6-methoxypyridin-2-yl)-2-(tetrahydro-2H-pyran-3-yl)imidazo[1,2-a]pyridine-6-carboxamide]	7.45	–
CC(C)(C)c1cn2cc(C(=O)Nc3cccc(C(F)F)n3)c(OC3CCC3)cc2n1 [Example 267, 2-(tert-Butyl)-7-cyclobutoxy-N-(6-(difluoromethyl)pyridin-2-yl)imidazo[1,2-a]pyridine-6-carboxamide]	8.70	–
CC12CCC(c3cn4cc(C(=O)Nc5ccn(C(F)F)n5)c(OC5CCC5)cc4n3)(CO1)C2 (stereo not shown) [Example 418, 7-Cyclobutoxy-N-(1-(difluoromethyl)-1H-pyrazol-3-yl)-2-(1-methyl-2-oxabicyclo[2.2.1]heptan-4-yl)imidazo[1,2-a]pyridine-6-carboxamide]	8.68	–
CC12CC(c3cn4cc(C(=O)Nc5cccc(C(F)F)n5)c(OC(F)F)cc4n3)(CO1)C2 [Example 333, 7-(Difluoromethoxy)-N-(6-(difluoromethyl)pyridin-2-yl)-2-(1-methyl-2-oxabicyclo[2.1.1]hexan-4-yl)imidazo[1,2-a]pyridine-6-carboxamide trifluoroacetate]	–	0.0052
CCOc1nc(C(=O)Nc2ccn(CC3CC3)n2)cn2cc(C34CCC(C)(C3)OC4)nc12 (stereo not shown) [Example 282, N-(1-(cyclopropylmethyl)-1H-pyrazol-3-yl)-8-ethoxy-2-(1-methyl-2-oxabicyclo[2.2.1]heptan-4-yl)imidazo[1,2-a]pyrazine-6-carboxamide]	8.06	–
CCCOc1nc(C(=O)Nc2cccnc2OC)cn2cc(C34CCC(C)(C3)OC4)nc12 (stereo not shown) [Example 275, N-(2-methoxypyridin-3-yl)-2-(1-methyl-2-oxabicyclo[2.2.1]heptan-4-yl)-8-propoxyimidazo[1,2-a]pyrazine-6-carboxamide trifluoroacetate]	–	0.0007
CC(C)Oc1cc2nc(C34CCC(C)(CC3)OC4)cn2cc1C(=O)Nc1cccn(C)c1=O [Example 574, 7-Isopropoxy-N-(1-methyl-2-oxo-1,2-dihydropyridin-3-yl)-2-(1-methyl-2-oxabicyclo[2.2.2]octan-4-yl)imidazo[1,2-a]pyridine-6-carboxamide]	–	0.0002
CCC(C)Oc1nc2nc(C34COC(CF)(C3)C4)cn2cc1C(=O)Nc1cnn2cc(C)cnc12 (single isomer, unassigned) [Example 644]	8.92	–
CC(C)Oc1cc2nc(C34COC(C3)C4)cn2cc1C(=O)Nc1cccc(C(F)F)n1 [Example 544, 2-(2-Oxabicyclo[2.1.1]hexan-4-yl)-N-(6-(difluoromethyl)pyridin-2-yl)-7-isopropoxyimidazo[1,2-a]pyridine-6-carboxamide]	9.70	–
COCCn1ccc(NC(=O)c2cn3cc(C4C5COCC54)nc3cn2)n1 (stereo not shown) [Example 84]	5.12	–
CC(C)Oc1cc2nc(C34CCC(C3)OC4)cn2cc1C(=O)Nc1cnn2cccnc12 (stereo not shown) [Example 416, 2-(2-Oxabicyclo[2.2.1]heptan-4-yl)-7-isopropoxy-N-(pyrazolo[1,5-a]pyrimidin-3-yl)imidazo[1,2-a]pyridine-6-carboxamide]	9.22	–
CCOc1nc(C(=O)Nc2cccc(OC)n2)cn2cc(C34COC(C)(C3)C4)nc12 [Example 486, 8-Ethoxy-N-(6-methoxypyridin-2-yl)-2-(1-methyl-2-oxabicyclo[2.1.1]hexan-4-yl)imidazo[1,2-a]pyrazine-6-carboxamide]	8.12	–
CCOc1nc(C(=O)Nc2cc(F)ccc2OC)cn2cc(C34COC(C)(C3)C4)nc12 [Example 484, 8-Ethoxy-N-(5-fluoro-2-methoxyphenyl)-2-(1-methyl-2-oxabicyclo[2.1.1]hexan-4-yl)imidazo[1,2-a]pyrazine-6-carboxamide]	8.14	–

More lines, now with the values ahead:

pIC50	IC50 [µM]	SMILES
–	0.0445	Cn1cccc(NC(=O)c2cn3cc(C4CC4)nc3c(OCCF)n2)c1=O [Example 637, 2-Cyclopropyl-8-(2-fluoroethoxy)-N-(1-methyl-2-oxo-1,2-dihydropyridin-3-yl)imidazo[1,2-a]pyrazine-6-carboxamide trifluoroacetate]
–	0.0055	COc1cccc(NC(=O)c2cn3cc(C4CC4)nc3cc2OCC2CC3CCC2O3)n1 (stereo not shown) [Example 478, 7-((7-Oxabicyclo[2.2.1]heptan-2-yl)methoxy)-2-cyclopropyl-N-(6-methoxypyridin-2-yl)imidazo[1,2-a]pyridine-6-carboxamide]
6.80	–	CC(C)Oc1c(C(=O)Nc2cccn(C)c2=O)cn2cc(C34COC(C)(C3)C4)nc2c1Cl [Example 255, 8-Chloro-7-isopropoxy-N-(1-methyl-2-oxo-1,2-dihydropyridin-3-yl)-2-(1-methyl-2-oxabicyclo[2.1.1]hexan-4-yl)imidazo[1,2-a]pyridine-6-carboxamide]
7.90	–	CCOc1cc2nc([C@H]3C[C@H]3F)cn2cc1C(=O)Nc1cccc(OC)n1 [Example 79]
7.45	–	COc1cc2nc(C3CCOCC3)cn2cc1C(=O)Nc1cccc(F)c1F [Example 113]
9.22	–	Cc1cnc2c(NC(=O)c3cn4cc([C@]56CC[C@](C)(C5)OC6)nc4nc3OC(C)C)cnn2c1 (single isomer, unassigned) [Example 617]
8.24	–	CCOc1nc(C(=O)Nc2cccnc2OC)cn2cc(C3CCOCC3)nc12 [Example 209]
9.10	–	Cc1cnc2c(NC(=O)c3cn4cc([C@]56CO[C@H](CCO5)C6)nc4cc3OC(C)C)cnn2c1 (single isomer, unassigned) [Example 646]
8.22	–	CC(C)Oc1cc2nc(C34COC(C)(C3)C4)c(F)n2cc1C(=O)Nc1cnn2cccnc12 [Example 328, 3-Fluoro-7-isopropoxy-2-(1-methyl-2-oxabicyclo[2.1.1]hexan-4-yl)-N-(pyrazolo[1,5-a]pyrimidin-3-yl)imidazo[1,2-a]pyridine-6-carboxamide]
8.25	–	CC(C)Oc1cc2nc(C(F)(F)F)cn2cc1C(=O)Nc1cccc(C(F)F)n1 [Example 294, N-(6-(difluoromethyl)pyridin-2-yl)-7-isopropoxy-2-(trifluoromethyl)imidazo[1,2-a]pyridine-6-carboxamide]
8.62	–	Cc1cnc2c(NC(=O)c3cn4cc(C56CCC(C)(C5)OC6)nc4nc3OC(C)C)cnn2c1 (stereo not shown) [Example 569, 7-Isopropoxy-2-(1-methyl-2-oxabicyclo[2.2.1]heptan-4-yl)-N-(6-methylpyrazolo[1,5-a]pyrimidin-3-yl)imidazo[1,2-a]pyrimidine-6-carboxamide]
9.52	–	CC(C)Oc1nc2nc(C34COC(CF)(C3)C4)cn2cc1C(=O)Nc1cccc(C(F)F)n1 [Example 564, N-(6-(difluoromethyl)pyridin-2-yl)-2-(1-(fluoromethyl)-2-oxabicyclo[2.1.1]hexan-4-yl)-7-isopropoxyimidazo[1,2-a]pyrimidine-6-carboxamide]
9.52	–	COC12CC(c3cn4cc(C(=O)Nc5cccc(C(F)F)n5)c(OC(C)C)cc4n3)(C1)C2 [Example 227]
